Test results reported in ChEMBL document CHEMBL1201862, “PubChem BioAssay data set” (2004).
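Briefly, cells in 96-well plates were exposed to five compound concentrations for 48 h, and endpoints were estimated by linear interpolation. GI50 marks 50% less growth.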 The source made the active and inactive calls. No stated cut-off is given here; in the data, active = GI50 up to about 1.1 µM and inactive = higher.

Columns and labels:
Assay in all cases: growth of human tumour cells (NCI), 48 h
A498 = test system: A498
A549 = test system: A549
CCRF-CEM = test system: CCRF-CEM
COLO 205 = test system: COLO 205
DLD-1 = test system: DLD-1
DMS-114 = test system: DMS-114
DMS-273 = test system: DMS-273
EKVX = test system: EKVX
HCC 2998 = test system: HCC 2998
HCT-116 = test system: HCT-116
HCT-15 = test system: HCT-15
HL-60 = test system: HL-60
HOP-18 = test system: HOP-18
HOP-62 = test system: HOP-62
HOP-92 = test system: HOP-92
HT-29 = test system: HT-29
IGROV-1 = test system: IGROV-1
K562 = test system: K562
KM-20L2 = test system: KM-20L2
KM12 = test system: KM12
LOX IMVI = test system: LOX IMVI
M19-MEL = test system: M19-MEL
MCF7 = test system: MCF7
MOLT-4 = test system: MOLT-4
Malme-3M = test system: Malme-3M
NCI-H226 = test system: NCI-H226
NCI-H23 = test system: NCI-H23
NCI-H460 = test system: NCI-H460
NCI-H522 = test system: NCI-H522
NCI/ADR-RES = test system: NCI/ADR-RES
OVCAR-3 = test system: OVCAR-3
OVCAR-4 = test system: OVCAR-4
OVCAR-5 = test system: OVCAR-5
OVCAR-8 = test system: OVCAR-8
RPMI-8226 = test system: RPMI-8226
RXF 393 = test system: RXF 393
SF-268 = test system: SF-268
SF-295 = test system: SF-295
SF-539 = test system: SF-539
SK-MEL-28 = test system: SK-MEL-28
SK-MEL-2 = test system: SK-MEL-2
SK-MEL-5 = test system: SK-MEL-5
SK-OV-3 = test system: SK-OV-3
SN12C = test system: SN12C
SNB-19 = test system: SNB-19
SNB-75 = test system: SNB-75
SNB-78 = test system: SNB-78
SW-620 = test system: SW-620
U-251 = test system: U-251
UACC-257 = test system: UACC-257
UACC-62 = test system: UACC-62
UO-31 = test system: UO-31
XF498 = test system: XF498
786-0 = test system: 786-0
ACHN = test system: ACHN
M14 = test system: M14
SR = test system: SR
TK-10 = test system: TK-10

CSc1nc2c(ncn2C2OCC(O)C(O)C2O)c(=O)n1C (centres undefined)
GI50 (A498): > 100 µM (inactive) | GI50 (A549): > 100 µM (inactive) | GI50 (CCRF-CEM): > 100 µM (inactive) | GI50 (COLO 205): > 100 µM (inactive) | GI50 (DLD-1): > 100 µM (inactive) | GI50 (DMS-114): > 100 µM (inactive) | GI50 (DMS-273): > 100 µM (inactive) | GI50 (EKVX): > 100 µM (inactive) | GI50 (HCC 2998): > 100 µM (inactive) | GI50 (HCT-116): > 100 µM (inactive) | GI50 (HCT-15): > 100 µM | GI50 (HL-60): > 100 µM (inactive) | GI50 (HOP-18): > 100 µM (inactive) | GI50 (HOP-62): > 100 µM (inactive) | GI50 (HOP-92): > 100 µM (inactive) | GI50 (HT-29): > 100 µM (inactive) | GI50 (IGROV-1): > 100 µM (inactive) | GI50 (K562): > 100 µM (inactive) | GI50 (KM-20L2): > 100 µM (inactive) | GI50 (KM12): > 100 µM (inactive) | GI50 (LOX IMVI): > 100 µM (inactive) | GI50 (M19-MEL): > 100 µM (inactive) | GI50 (MCF7): > 100 µM (inactive) | GI50 (MOLT-4): > 100 µM (inactive) | GI50 (Malme-3M): > 100 µM (inactive) | GI50 (NCI-H226): > 100 µM (inactive) | GI50 (NCI-H23): > 100 µM (inactive) | GI50 (NCI-H460): > 100 µM (inactive) | GI50 (NCI-H522): > 100 µM (inactive) | GI50 (NCI/ADR-RES): > 100 µM (inactive) | GI50 (OVCAR-3): > 100 µM (inactive) | GI50 (OVCAR-4): > 100 µM (inactive) | GI50 (OVCAR-5): > 100 µM (inactive) | GI50 (OVCAR-8): > 100 µM (inactive) | GI50 (RPMI-8226): > 100 µM (inactive) | GI50 (RXF 393): > 100 µM (inactive) | GI50 (SF-268): > 100 µM (inactive) | GI50 (SF-295): > 100 µM (inactive) | GI50 (SF-539): > 100 µM (inactive) | GI50 (SK-MEL-28): > 100 µM (inactive) | GI50 (SK-MEL-2): > 100 µM (inactive) | GI50 (SK-MEL-5): > 100 µM (inactive) | GI50 (SK-OV-3): > 100 µM (inactive) | GI50 (SN12C): > 100 µM (inactive) | GI50 (SNB-19): > 100 µM (inactive) | GI50 (SNB-75): 73.6 µM (inactive) | GI50 (SNB-78): > 100 µM (inactive) | GI50 (SW-620): > 100 µM (inactive) | GI50 (U-251): > 100 µM (inactive) | GI50 (UACC-257): > 100 µM (inactive) | GI50 (UACC-62): > 100 µM (inactive) | GI50 (UO-31): > 100 µM (inactive) | GI50 (XF498): > 100 µM (inactive)

ClCc1nnc2n1-c1ccc(Cl)cc1SC2
GI50 (A498): 4.03 µM (inactive) | GI50 (A549): 5.05 µM (inactive) | GI50 (CCRF-CEM): 2.19 µM (inactive) | GI50 (COLO 205): 4.06 µM (inactive) | GI50 (DMS-114): 2.8 µM (inactive) | GI50 (DMS-273): 2.92 µM (inactive) | GI50 (EKVX): 13.3 µM (inactive) | GI50 (HCC 2998): 4.06 µM (inactive) | GI50 (HCT-116): 3.1 µM (inactive) | GI50 (HCT-15): 4.56 µM | GI50 (HL-60): 1.56 µM (inactive) | GI50 (HOP-18): 2.92 µM (inactive) | GI50 (HOP-62): 6.25 µM (inactive) | GI50 (HOP-92): 2.55 µM (inactive) | GI50 (HT-29): 3.65 µM (inactive) | GI50 (IGROV-1): 2.94 µM (inactive) | GI50 (K562): 2.9 µM (inactive) | GI50 (KM-20L2): 4.67 µM (inactive) | GI50 (KM12): 4.35 µM (inactive) | GI50 (LOX IMVI): 1.49 µM (inactive) | GI50 (M19-MEL): 3.23 µM (inactive) | GI50 (MCF7): 4.2 µM (inactive) | GI50 (MOLT-4): 1.45 µM (inactive) | GI50 (Malme-3M): 3.88 µM (inactive) | GI50 (NCI-H226): 1.94 µM (inactive) | GI50 (NCI-H23): 2.35 µM (inactive) | GI50 (NCI-H460): 3.66 µM (inactive) | GI50 (NCI-H522): 1.63 µM (inactive) | GI50 (NCI/ADR-RES): 1.78 µM (inactive) | GI50 (OVCAR-3): 2.17 µM (inactive) | GI50 (OVCAR-4): 3.89 µM (inactive) | GI50 (OVCAR-5): 12.2 µM (inactive) | GI50 (OVCAR-8): 4.02 µM (inactive) | GI50 (RPMI-8226): 3.3 µM (inactive) | GI50 (RXF 393): 2.23 µM (inactive) | GI50 (SF-268): 2.87 µM (inactive) | GI50 (SF-295): 2.21 µM (inactive) | GI50 (SF-539): 3.47 µM (inactive) | GI50 (SK-MEL-28): 4.74 µM (inactive) | GI50 (SK-MEL-2): 2.81 µM (inactive) | GI50 (SK-MEL-5): 2.62 µM (inactive) | GI50 (SK-OV-3): 3.56 µM (inactive) | GI50 (SN12C): 7.26 µM (inactive) | GI50 (SNB-19): 13 µM (inactive) | GI50 (SNB-75): 3.15 µM (inactive) | GI50 (SNB-78): 5.4 µM (inactive) | GI50 (SW-620): 4.55 µM (inactive) | GI50 (U-251): 6.59 µM (inactive) | GI50 (UACC-257): 2.16 µM (inactive) | GI50 (UACC-62): 2.69 µM (inactive) | GI50 (UO-31): 15.1 µM (inactive) | GI50 (XF498): 5.57 µM (inactive)

O=C1C2C3C=C4c5ccccc5N(c5ccccc5)C4([C@@H]2C(=O)N1c1ccc(F)cc1)[C@H]1C(=O)N(c2ccc(F)cc2)C(=O)[C@@H]31 (some centres undefined)
GI50 (786-0): > 100 µM (inactive) | GI50 (A549): > 100 µM (inactive) | GI50 (ACHN): > 100 µM (inactive) | GI50 (CCRF-CEM): > 100 µM (inactive) | GI50 (COLO 205): > 100 µM (inactive) | GI50 (DLD-1): > 100 µM (inactive) | GI50 (DMS-114): > 100 µM (inactive) | GI50 (EKVX): > 100 µM (inactive) | GI50 (HCC 2998): > 100 µM (inactive) | GI50 (HCT-15): > 100 µM | GI50 (HL-60): > 100 µM (inactive) | GI50 (HOP-18): > 100 µM (inactive) | GI50 (HOP-92): > 100 µM (inactive) | GI50 (K562): > 100 µM (inactive) | GI50 (KM12): > 100 µM (inactive) | GI50 (LOX IMVI): > 100 µM (inactive) | GI50 (M14): > 100 µM (inactive) | GI50 (M19-MEL): > 100 µM (inactive) | GI50 (MOLT-4): > 100 µM (inactive) | GI50 (Malme-3M): > 100 µM (inactive) | GI50 (NCI-H226): > 100 µM (inactive) | GI50 (NCI-H23): > 100 µM (inactive) | GI50 (NCI-H522): > 100 µM (inactive) | GI50 (OVCAR-3): > 100 µM (inactive) | GI50 (OVCAR-5): > 100 µM (inactive) | GI50 (OVCAR-8): > 100 µM (inactive) | GI50 (RPMI-8226): > 100 µM (inactive) | GI50 (RXF 393): 81.3 µM (inactive) | GI50 (SF-268): 37.2 µM (inactive) | GI50 (SF-295): > 100 µM (inactive) | GI50 (SF-539): > 100 µM (inactive) | GI50 (SK-MEL-28): > 100 µM (inactive) | GI50 (SK-MEL-2): > 100 µM (inactive) | GI50 (SN12C): 82 µM (inactive) | GI50 (SNB-19): > 100 µM (inactive) | GI50 (SNB-75): > 100 µM (inactive) | GI50 (SNB-78): 82.2 µM (inactive) | GI50 (SR): > 100 µM (inactive) | GI50 (SW-620): > 100 µM (inactive) | GI50 (TK-10): > 100 µM (inactive) | GI50 (U-251): > 100 µM (inactive) | GI50 (UACC-257): > 100 µM (inactive) | GI50 (UO-31): 20.9 µM (inactive) | GI50 (XF498): > 100 µM (inactive)
